Experimental data from patent US20170159101A1, “DRUG-RESISTANT P97 ATPASE MUTATIONS” (Cleave Biosciences, Inc., priority 2014, published 2017).

How the values were obtained:
[1] = system: Hct116 resistant cell line clone #11 (p97 E470D); settings: Clone #11, Hct116, resistance generated with compound 3, G1410T / E470D; 72 hrs
[2] = system: Hct116 resistant cell line clone #2 (p97 V474A); experiment: GI50 fold-change, resistant clone #2 vs parental; assay type: cell-based, human; settings: Clone #2, Hct116, resistance generated with compound 2, T1421C / V474A; 72 hrs
Description: (§1) Dose titration of test compounds were conducted in Hct116, DLD-1, or LoVo cell lines. In brief, cells were plated in 384-well plates and a selected candidate drug compound was added in a 10-point 2-fold serial dilution.

[3] = system: Hct116 resistant cell line clone #33 (p97 P472L); experiment: GI50 fold-change, resistant clone #33 vs parental; assay type: cell-based, human; settings: Clone #33, Hct116, resistance generated with compound 4, C1415T / P472L; 72 hrs
Description: as §1

[4] = system: DLD-1 resistant cell line clone #58 (p97 D649D/N); experiment: GI50 fold-change, resistant clone #58 vs parental; assay type: cell-based, human; settings: Clone #58, DLD-1, resistance generated with compound 4, G1945G/A / D649D/N; 72 hrs
Description: as §1

[5] = system: LoVo resistant cell line clone #221 (p97 V474V/A); experiment: GI50 fold-change, resistant clone #221 vs parental; assay type: cell-based, human; settings: Clone #221, LoVo, resistance generated with compound 4, T1421C/T / V474V/A; 72 hrs
Description: (§2) Dose titration of test compounds were conducted in Hct116, DLD-1, or LoVo cell lines. In brief, cells were plated in 384-well plates and a selected candidate drug compound was added in a 10-point 2-fold serial dilution. […] Hct116 cells were plated at 50,000 cells per 15 cm dish and treated with GI50-GI90 doses of test compound for 2-4 weeks until individual colonies of cells were visible on the plate.

[6] = system: Hct116 resistant cell line clone #31 (p97 C535Y); experiment: GI50 fold-change, resistant clone #31 vs parental; assay type: cell-based, human; settings: Clone #31, Hct116, resistance generated with compound 4, G1604A / C535Y; 72 hrs
Description: as §1

[7] = system: DLD-1 resistant cell line clone #61 (p97 I620I/L); experiment: GI50 fold-change, resistant clone #61 vs parental; assay type: cell-based, human; settings: Clone #61, DLD-1, resistance generated with compound 4, T1859T/C / I620I/L; 72 hrs
Description: as §1

[8] = system: Hct116 resistant cell line clone #3 (p97 G481A); settings: Clone #3, Hct116, resistance generated with compound 2, G1442C / G481A; 72 hrs
[9] = system: Hct116 resistant cell line clone #34 (p97 E470D/E); experiment: GI50 fold-change, resistant clone #34 vs parental; assay type: cell-based, human; settings: Clone #34, Hct116, resistance generated with compound 4, G1410T/G / E470D/E; 72 hrs
Description: as §1

[10] = system: Hct116 resistant cell line clone #7 (p97 A659T); settings: Clone #7, Hct116, resistance generated with compound 3, G1975A / A659T; 72 hrs
[11] = system: Hct116 resistant cell line clone #108 (p97 P646T); experiment: GI50 fold-change, resistant clone #108 vs parental; assay type: cell-based, human; settings: Clone #108, Hct116, resistance generated with compound 4, C1936A / P646T; 72 hrs
Description: as §2

[12] = system: p97 inhibitor resistant cell lines; experiment: GI50 fold-change in p97 inhibitor resistant cell lines (overall); assay type: cell-based, human; settings: all resistant cell lines of Table 1, in words
Description: as §1

Structure (SMILES): CC(C)C[C@H](NC(=O)[C@H](Cc1ccccc1)NC(=O)c1cnccn1)B(O)O [Compound 1, [(1R)-3-methyl-1-[(2S)-3-phenyl-2-(pyrazin-2-ylformamido)propanamido]butyl]boronic acid, reference compound]
- Fold Change in GI50 Compared to Parental Cell Line [1]: 1.0 fold
- Fold Change in GI50 Compared to Parental Cell Line [2]: 1.0 fold
- Fold Change in GI50 Compared to Parental Cell Line [3]: 0.9 fold
- Fold Change in GI50 Compared to Parental Cell Line [4]: 1.3 fold
- Fold Change in GI50 Compared to Parental Cell Line [5]: 0.9 fold
- Fold Change in GI50 Compared to Parental Cell Line [6]: 0.9 fold
- Fold Change in GI50 Compared to Parental Cell Line [7]: 0.8 fold
- Fold Change in GI50 Compared to Parental Cell Line [8]: 0.9 fold
- Fold Change in GI50 Compared to Parental Cell Line [9]: 0.8 fold
- Fold Change in GI50 Compared to Parental Cell Line [10]: 0.9 fold
- Fold Change in GI50 Compared to Parental Cell Line [11]: 0.9 fold
- fold-change in GI50 for the p97 inhibitor resistant cell lines [12]: little fold-change in GI50

Structure (SMILES): Cc1cc2c(C(N)=O)cccc2n1-c1nc2c(c(NCc3ccccc3)n1)COCC2 [Compound 4, 1-[4-(benzylamino)-5H,7H,8H-pyrano[4,3-d]pyrimidin-2-yl]-2-methyl-1H-indole-4-carboxamide]
- Fold Change in GI50 Compared to Parental Cell Line [1]: 5.4 fold
- Fold Change in GI50 Compared to Parental Cell Line [2]: 8.7 fold
- Fold Change in GI50 Compared to Parental Cell Line [3]: 11.6 fold
- Fold Change in GI50 Compared to Parental Cell Line [4]: 1.8 fold
- Fold Change in GI50 Compared to Parental Cell Line [5]: 2.2 fold
- Fold Change in GI50 Compared to Parental Cell Line [6]: 4.6 fold
- Fold Change in GI50 Compared to Parental Cell Line [7]: 1.3 fold
- Fold Change in GI50 Compared to Parental Cell Line [8]: 19.4 fold
- Fold Change in GI50 Compared to Parental Cell Line [9]: 3.7 fold
- Fold Change in GI50 Compared to Parental Cell Line [10]: 3.8 fold
- Fold Change in GI50 Compared to Parental Cell Line [11]: 2.0 fold
